From ChEMBL document CHEMBL1201862, “PubChem BioAssay data set” (2004)
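Grown in 96-well plates, cells were treated for 48 hours with each compound at five concentrations. Insufficient inhibition: endpoint recorded as highest concentration tested. GI50: concentration for 50% inhibition of growth.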 Activity calls are given as the source filed them. Cut-off read from the data, not from the text of the source: active = GI50 up to about 1.1 µM and inactive = higher.

Tests used:
Experiment in all cases: DTP human tumour cell line panel, 48 h
A498 = tested on: A498
A549 = tested on: A549
ACHN = tested on: ACHN
CAKI-1 = tested on: CAKI-1
HCT-116 = tested on: HCT-116
HOP-92 = tested on: HOP-92
HT-29 = tested on: HT-29
KM12 = tested on: KM12
MCF7 = tested on: MCF7
NCI-H226 = tested on: NCI-H226
OVCAR-3 = tested on: OVCAR-3
OVCAR-8 = tested on: OVCAR-8
SK-MEL-28 = tested on: SK-MEL-28
SK-MEL-5 = tested on: SK-MEL-5
SK-OV-3 = tested on: SK-OV-3
SN12C = tested on: SN12C
SNB-75 = tested on: SNB-75
T47D = tested on: T47D
LOX IMVI = tested on: LOX IMVI
SK-MEL-2 = tested on: SK-MEL-2

CC1=N[C@@](C)(C2CC3C=CC2C3=O)COC1=O (stereo not given in full)
GI50 (A498): > 100 µM (inactive)
GI50 (A549): > 100 µM (inactive)
GI50 (ACHN): > 100 µM (inactive)
GI50 (CAKI-1): > 100 µM (inactive)
GI50 (HCT-116): > 100 µM (inactive)
GI50 (HOP-92): > 100 µM (inactive)
GI50 (HT-29): > 100 µM (inactive)
GI50 (KM12): > 100 µM (inactive)
GI50 (MCF7): > 100 µM (inactive)
GI50 (NCI-H226): > 100 µM (inactive)
GI50 (OVCAR-3): > 100 µM (inactive)
GI50 (OVCAR-8): > 100 µM (inactive)
GI50 (SK-MEL-28): > 100 µM (inactive)
GI50 (SK-MEL-5): > 100 µM (inactive)
GI50 (SK-OV-3): > 100 µM (inactive)
GI50 (SN12C): > 100 µM (inactive)
GI50 (SNB-75): > 100 µM (inactive)
GI50 (T47D): > 100 µM (inactive)

COc1cc(-c2cc(=O)c3cc4c(cc3[nH]2)OCO4)cc(OC)c1O
GI50 (A549): > 10 µM (inactive)
GI50 (ACHN): > 10 µM (inactive)
GI50 (CAKI-1): > 10 µM (inactive)
GI50 (HCT-116): > 10 µM (inactive)
GI50 (HOP-92): > 10 µM (inactive)
GI50 (HT-29): > 10 µM (inactive)
GI50 (KM12): > 10 µM (inactive)
GI50 (LOX IMVI): > 10 µM (inactive)
GI50 (MCF7): > 10 µM (inactive)
GI50 (NCI-H226): > 10 µM (inactive)
GI50 (OVCAR-3): > 10 µM (inactive)
GI50 (OVCAR-8): > 10 µM (inactive)
GI50 (SK-MEL-28): > 10 µM (inactive)
GI50 (SK-MEL-2): > 10 µM (inactive)
GI50 (SK-MEL-5): > 10 µM (inactive)
GI50 (SK-OV-3): > 10 µM (inactive)
GI50 (SN12C): > 10 µM (inactive)
GI50 (SNB-75): > 10 µM (inactive)
GI50 (T47D): > 10 µM (inactive)

[O-][n+]1c2ccccc2[n+]([O-])c2cc(Br)ccc21
GI50 (A498): 17.9 µM (inactive)
GI50 (A549): 10.8 µM (inactive)
GI50 (ACHN): 4.81 µM (inactive)
GI50 (CAKI-1): 5.41 µM (inactive)
GI50 (HCT-116): 70.1 µM (inactive)
GI50 (HT-29): 18.6 µM (inactive)
GI50 (KM12): 12.6 µM (inactive)
GI50 (LOX IMVI): 2.99 µM (inactive)
GI50 (MCF7): 11.3 µM (inactive)
GI50 (NCI-H226): 21.6 µM (inactive)
GI50 (OVCAR-3): 2.21 µM (inactive)
GI50 (OVCAR-8): 14.8 µM (inactive)
GI50 (SK-MEL-28): 54.1 µM (inactive)
GI50 (SK-MEL-2): 29 µM (inactive)
GI50 (SK-MEL-5): 13.3 µM (inactive)
GI50 (SN12C): 21.5 µM (inactive)
GI50 (SNB-75): 26.3 µM (inactive)
GI50 (T47D): 10.2 µM (inactive)

C/C=C(\C)CC/C=C/CO[Si](C)(C)C(C)(C)C
GI50 (A498): > 100 µM (inactive)
GI50 (A549): 39.4 µM (inactive)
GI50 (ACHN): > 100 µM (inactive)
GI50 (CAKI-1): > 100 µM (inactive)
GI50 (HCT-116): 46.8 µM (inactive)
GI50 (HT-29): 42.5 µM (inactive)
GI50 (KM12): > 100 µM (inactive)
GI50 (LOX IMVI): 22.3 µM (inactive)
GI50 (MCF7): 40.1 µM (inactive)
GI50 (NCI-H226): > 100 µM (inactive)
GI50 (OVCAR-3): 54.7 µM (inactive)
GI50 (OVCAR-8): > 100 µM (inactive)
GI50 (SK-MEL-28): > 100 µM (inactive)
GI50 (SK-MEL-2): 35.4 µM (inactive)
GI50 (SK-MEL-5): > 100 µM (inactive)
GI50 (SK-OV-3): > 100 µM (inactive)
GI50 (SN12C): > 100 µM (inactive)
GI50 (SNB-75): > 100 µM (inactive)
GI50 (T47D): > 100 µM (inactive)

c1ccc(CCCCNCc2cc(CNCCCCc3ccccc3)cc(CNCCCCc3ccccc3)c2)cc1
GI50 (A549): 0.263 µM (active)
GI50 (ACHN): 1.63 µM (inactive)
GI50 (CAKI-1): 1.86 µM (inactive)
GI50 (HCT-116): 1.97 µM (inactive)
GI50 (HOP-92): 1.45 µM (inactive)
GI50 (HT-29): 1.02 µM (active)
GI50 (KM12): 0.544 µM (active)
GI50 (LOX IMVI): 0.308 µM (active)
GI50 (MCF7): 0.178 µM (active)
GI50 (NCI-H226): 2.6 µM (inactive)
GI50 (OVCAR-3): 1.47 µM (inactive)
GI50 (OVCAR-8): 0.782 µM (active)
GI50 (SK-MEL-28): 0.948 µM (active)
GI50 (SK-MEL-2): 1.82 µM (inactive)
GI50 (SK-MEL-5): 1.81 µM (inactive)
GI50 (SK-OV-3): 1.97 µM (inactive)
GI50 (SN12C): 3.63 µM (inactive)
GI50 (SNB-75): 1.66 µM (inactive)
GI50 (T47D): 1.79 µM (inactive)

Cc1cc(C)cc(Nc2cc(O)nc(O)n2)c1
GI50 (A498): > 100 µM (inactive)
GI50 (A549): > 100 µM (inactive)
GI50 (ACHN): > 100 µM (inactive)
GI50 (HCT-116): > 100 µM (inactive)
GI50 (HOP-92): > 100 µM (inactive)
GI50 (HT-29): > 100 µM (inactive)
GI50 (KM12): > 100 µM (inactive)
GI50 (LOX IMVI): > 100 µM (inactive)
GI50 (MCF7): > 100 µM (inactive)
GI50 (NCI-H226): 58.3 µM (inactive)
GI50 (OVCAR-3): > 100 µM (inactive)
GI50 (OVCAR-8): > 100 µM (inactive)
GI50 (SK-MEL-28): > 100 µM (inactive)
GI50 (SK-MEL-5): > 100 µM (inactive)
GI50 (SN12C): > 100 µM (inactive)
GI50 (SNB-75): 15.8 µM (inactive)
GI50 (T47D): 0.0649 µM (active)
